Assay results reported in US20150192565A1, “METHOD FOR EVALUATING THERAPEUTIC EFFECT OF T[…] APPLICATION THEREOF” (NATIONAL TAIWAN UNIVERSITY, priority 2014, published 2015).

How the values were obtained:
HCC [1] = assay: Thalidomide as adjuvant therapy after curative resection for HCC, HCC recurrence by LHX4 expression group (Kaplan-Meier); format: in vivo, human; conditions: for HCC recurrence rate (%) / Number of HCC recurrence patients: three-year
Description: Samples of liver tissue were obtained from 48 patients, who suffered HCC at stage II or III (defined by American Joint Committee on Cancer, AJCC) and underwent curative resection for the HCC. All of the patients were enrolled within 4 weeks after surgery. 27 of the patients received Thalidomide 200 mg/day and the others received a placebo 200 mg/day for 12 months or until HCC recurrence.
The sample of liver tissue from each patient includes tumorous tissue and non-tumorous tissue neighboring the tumorous tissue. The respective Lhx4 proteins in the tumorous and non-tumorous tissues of each patient were detected using western blot and then quantified by ImageJ software (published by the National Institutes of Health of United States of America). The quantified results of the Lhx4 proteins in the tumorous and non-tumorous tissues were respectively normalized based on the quantified results of β-actin in the tumorous and non-tumorous tissues of the corresponding patient to obtain the (protein) expression levels of the LHX4 gene in the tumorous and non-tumorous tissues of the patient.
For each and every patient, the expression level of the LHX4 gene in the tumorous tissue (called “T” hereinafter) was divided by the expression level of the LHX4 gene in the non-tumorous tissue (called “NT” hereinafter) to obtain a T/NT ratio, which represents the decreasing magnitude of the expression level of the LHX4 gene in the tumorous tissue when compared with the non-tumorous tissue.
In an embodiment, the correlation between the decreasing magnitude of the expression level of the LHX4 gene in the tumorous tissue of a patient and the therapeutic effect of Thalidomide on the liver cancer of the patient is indicated by the HCC recurrence of the patient. Specifically, the end date of observation of a patient's HCC recurrence is set as the date three years after the surgery for the liver cancer.
In an embodiment, the 48 patients were divided into two groups according the T/NT ratio to evaluate the therapeutic effect of Thalidomide on the patients. […]
Each of FIGS. 2A, 2B and 2C show the respective 3-year HCC recurrence-free survival days (from the date that the patient underwent the surgery for the liver cancer to the date of observing the HCC recurrence of the patient) of the patients, where the event in the curves is the first HCC recurrence of a patient after the surgery.
In an embodiment, for each of the 48 patients, the LHX4 expression level in the tumorous tissue was obtained through normalizing the quantified result of the western blot of the Lhx4 protein of the tumorous tissue based on a specific amount of β-actin in the tumorous tissue. After the normalization, the LHX4 expression levels in the tumorous tissue of all the patients, normalized by the same amount of β-actin, were obtained. […] Each of FIGS. 3A, 3B and 3C show the respective 3-year HCC recurrence-free survival days (from the date that the patient underwent the surgery for the liver cancer to the date of observing the HCC recurrence of the patient) of the patients, where the event of the curves is the first HCC recurrence in a patient after the surgery.

HCC [2] = conditions: adjuvant therapy after surgical resection; placebo 33%; cited from earlier work
[3] = T/NT ratio < 0.2, 13 total patients
[4] = T/NT ratio ≧ 0.2, 14 total patients

O=C1CCC(N2C(=O)c3ccccc3C2=O)C(=O)N1 (racemic) [Thalidomide, (RS)-2-(2,6-dioxopiperidin-3-yl)-1H-isoindole-1,3(2H)-dione]
mean 3-year HCC recurrence-free survival days, lower group compared with higher group (HCC [1]; groups divided by arithmetic average of LHX4 expression levels in tumorous tissue, patients receiving Thalidomide): obviously delayed
mean 3-year HCC recurrence-free survival days (HCC [1]; higher group, LHX4 expression level in tumorous tissue not lower than 0.17 (median), 14 patients, FIG. 3B/3C, P=0.567 vs placebo (535 days)): 466 days
mean 3-year HCC recurrence-free survival days (HCC [1]; higher group, T/NT ratio not lower than 0.2, Thalidomide 200 mg/day, 14 patients, FIG. 1B/1C, P=0.687 vs placebo (535 days)): 521 days
mean 3-year HCC recurrence-free survival days (HCC [1]; higher group, T/NT ratio not lower than 0.5, 5 patients, FIG. 2B/2C, P=0.272 vs placebo (493 days)): 344 days
mean 3-year HCC recurrence-free survival days (HCC [1]; lower group, LHX4 expression level in tumorous tissue lower than 0.17 (median), 13 patients, FIG. 3A/3C, P=0.033 vs placebo (526 days)): 833 days
mean 3-year HCC recurrence-free survival days (HCC [1]; lower group, T/NT ratio lower than 0.2, Thalidomide 200 mg/day, 13 patients, FIG. 1A/1C, P=0.06 vs placebo (526 days)): 744 days
mean 3-year HCC recurrence-free survival days (HCC [1]; lower group, T/NT ratio lower than 0.5, 22 patients, FIG. 2A/2C, P=0.2 vs placebo (545 days)): 711 days
HCC recurrence rate (%) (HCC [1]; [3]): 38.5%
Number of HCC recurrence patients (HCC [1]; [3]): 5
HCC recurrence rate (%) (HCC [1]; [4]): 85.7%
Number of HCC recurrence patients (HCC [1]; [4]): 12
two-year HCC recurrence-free survival rate (HCC [2]): 65%
